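Briefly, cells in 96-well plates were exposed to five compound concentrations for 48 h, and endpoints were estimated by linear interpolation. The concentration for full growth arrest is given as TGI.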

The test system of one test is MOLT-4 leukemia. The test can be described thus: NCI-60 cell line screen, 48 h.
The molecule `Cc1cc(C)c(/C=C(\C(=C/c2c(C)cc(C)cc2C)[N+](=O)[O-])[N+](=O)[O-])c(C)c1` came in with a TGI greater than 100 µM.

Molecule `O=C1/C(=C/c2cccc([N+](=O)[O-])c2)Sc2scc(-c3ccc([N+](=O)[O-])cc3)[n+]21` displayed a TGI greater than 100 µM.

A further test has as its system CAKI-1 renal. The test can be described thus: NCI-60 cell line screen, 48 h.
With `COc1cc([N+](=O)[O-])c(OC)c2c(Nc3ccc(S(=O)(=O)O)c4cc(S(=O)(=O)O)cc(S(=O)(=O)O)c34)cc(C)nc12`, the TGI is greater than 100 µM.

In the case of `O=c1c2ccccc2sc2ccccc12`, the TGI was greater than 100 µM.

For the molecule `Cc1cc(C)c(/C=C(\C(=C/c2c(C)cc(C)cc2C)[N+](=O)[O-])[N+](=O)[O-])c(C)c1`, the TGI is greater than 100 µM.

In turn, `O=C1/C(=C/c2cccc([N+](=O)[O-])c2)Sc2scc(-c3ccc([N+](=O)[O-])cc3)[n+]21` registered a TGI of 51.5 µM.

Another test has as its system KM12 colon. The test can be described thus: NCI-60 cell line screen, 48 h.
In turn, `COc1cc([N+](=O)[O-])c(OC)c2c(Nc3ccc(S(=O)(=O)O)c4cc(S(=O)(=O)O)cc(S(=O)(=O)O)c34)cc(C)nc12` showed a TGI greater than 100 µM.

As to `O=c1c2ccccc2sc2ccccc12`, the TGI is greater than 100 µM.

The molecule `Cc1cc(C)c(/C=C(\C(=C/c2c(C)cc(C)cc2C)[N+](=O)[O-])[N+](=O)[O-])c(C)c1` displayed a TGI greater than 100 µM.

On to `O=C1/C(=C/c2cccc([N+](=O)[O-])c2)Sc2scc(-c3ccc([N+](=O)[O-])cc3)[n+]21`, for which the TGI came out at 33.3 µM.

A further test concerns HL-60(TB) leukemia. The test can be described thus: NCI-60 cell line screen, 48 h.
On to `COc1cc([N+](=O)[O-])c(OC)c2c(Nc3ccc(S(=O)(=O)O)c4cc(S(=O)(=O)O)cc(S(=O)(=O)O)c34)cc(C)nc12`, for which the TGI was greater than 100 µM.

For `O=c1c2ccccc2sc2ccccc12`, the TGI was greater than 100 µM.

Another test deals with MDA-MB-231 breast. Briefly: NCI-60 cell line screen, 48 h.
Turning to `COc1cc([N+](=O)[O-])c(OC)c2c(Nc3ccc(S(=O)(=O)O)c4cc(S(=O)(=O)O)cc(S(=O)(=O)O)c34)cc(C)nc12`, the TGI was greater than 100 µM.

As for `O=c1c2ccccc2sc2ccccc12`, the TGI is greater than 100 µM.

As for `Cc1cc(C)c(/C=C(\C(=C/c2c(C)cc(C)cc2C)[N+](=O)[O-])[N+](=O)[O-])c(C)c1`, the TGI was greater than 100 µM.

For `O=C1/C(=C/c2cccc([N+](=O)[O-])c2)Sc2scc(-c3ccc([N+](=O)[O-])cc3)[n+]21`, the TGI turned out to be 72.5 µM.

A further test deals with U251 CNS. Briefly: NCI-60 cell line screen, 48 h.
`COc1cc([N+](=O)[O-])c(OC)c2c(Nc3ccc(S(=O)(=O)O)c4cc(S(=O)(=O)O)cc(S(=O)(=O)O)c34)cc(C)nc12`: the TGI is greater than 100 µM.

`O=c1c2ccccc2sc2ccccc12`: the TGI was greater than 100 µM.

`Cc1cc(C)c(/C=C(\C(=C/c2c(C)cc(C)cc2C)[N+](=O)[O-])[N+](=O)[O-])c(C)c1` showed a TGI greater than 100 µM.

The molecule `O=C1/C(=C/c2cccc([N+](=O)[O-])c2)Sc2scc(-c3ccc([N+](=O)[O-])cc3)[n+]21` had a TGI greater than 100 µM.

Another test deals with SK-MEL-5 melanoma. Briefly: NCI-60 cell line screen, 48 h.
Molecule `COc1cc([N+](=O)[O-])c(OC)c2c(Nc3ccc(S(=O)(=O)O)c4cc(S(=O)(=O)O)cc(S(=O)(=O)O)c34)cc(C)nc12` came in with a TGI greater than 100 µM.

As for `O=c1c2ccccc2sc2ccccc12`, the TGI is greater than 100 µM.

As to `Cc1cc(C)c(/C=C(\C(=C/c2c(C)cc(C)cc2C)[N+](=O)[O-])[N+](=O)[O-])c(C)c1`, the TGI is greater than 100 µM.

Take `O=C1/C(=C/c2cccc([N+](=O)[O-])c2)Sc2scc(-c3ccc([N+](=O)[O-])cc3)[n+]21`: the TGI was greater than 100 µM.

The test system of the next test is T-47D breast. Briefly: NCI-60 cell line screen, 48 h.
The molecule `COc1cc([N+](=O)[O-])c(OC)c2c(Nc3ccc(S(=O)(=O)O)c4cc(S(=O)(=O)O)cc(S(=O)(=O)O)c34)cc(C)nc12` returned a TGI greater than 100 µM.

The molecule `O=c1c2ccccc2sc2ccccc12` registered a TGI greater than 100 µM.

For the molecule `Cc1cc(C)c(/C=C(\C(=C/c2c(C)cc(C)cc2C)[N+](=O)[O-])[N+](=O)[O-])c(C)c1`, the TGI is greater than 100 µM.

With `O=C1/C(=C/c2cccc([N+](=O)[O-])c2)Sc2scc(-c3ccc([N+](=O)[O-])cc3)[n+]21`, the TGI is greater than 100 µM.

The next test concerns RXF 393 renal. Briefly: NCI-60 cell line screen, 48 h.
For the molecule `COc1cc([N+](=O)[O-])c(OC)c2c(Nc3ccc(S(=O)(=O)O)c4cc(S(=O)(=O)O)cc(S(=O)(=O)O)c34)cc(C)nc12`, the TGI is greater than 100 µM.

The molecule `O=c1c2ccccc2sc2ccccc12` yielded a TGI greater than 100 µM.

Molecule `Cc1cc(C)c(/C=C(\C(=C/c2c(C)cc(C)cc2C)[N+](=O)[O-])[N+](=O)[O-])c(C)c1` returned a TGI of 90.4 µM.

A further test has as its system M14 melanoma. Briefly: NCI-60 cell line screen, 48 h.
Take `COc1cc([N+](=O)[O-])c(OC)c2c(Nc3ccc(S(=O)(=O)O)c4cc(S(=O)(=O)O)cc(S(=O)(=O)O)c34)cc(C)nc12`: the TGI was greater than 100 µM.

As to `O=c1c2ccccc2sc2ccccc12`, the TGI is greater than 100 µM.

Consider `Cc1cc(C)c(/C=C(\C(=C/c2c(C)cc(C)cc2C)[N+](=O)[O-])[N+](=O)[O-])c(C)c1`, for which the TGI is greater than 100 µM.

On to `O=C1/C(=C/c2cccc([N+](=O)[O-])c2)Sc2scc(-c3ccc([N+](=O)[O-])cc3)[n+]21`, for which the TGI was greater than 100 µM.

The next test has as its system OVCAR-5 ovarian. Briefly: NCI-60 cell line screen, 48 h.
As to `COc1cc([N+](=O)[O-])c(OC)c2c(Nc3ccc(S(=O)(=O)O)c4cc(S(=O)(=O)O)cc(S(=O)(=O)O)c34)cc(C)nc12`, the TGI was greater than 100 µM.

`O=c1c2ccccc2sc2ccccc12`: the TGI was greater than 100 µM.

Molecule `Cc1cc(C)c(/C=C(\C(=C/c2c(C)cc(C)cc2C)[N+](=O)[O-])[N+](=O)[O-])c(C)c1` came in with a TGI greater than 100 µM.

With `O=C1/C(=C/c2cccc([N+](=O)[O-])c2)Sc2scc(-c3ccc([N+](=O)[O-])cc3)[n+]21`, the TGI is 51.2 µM.

The subject of another test is HCC-2998 colon. The test can be described thus: NCI-60 cell line screen, 48 h.
The molecule `O=c1c2ccccc2sc2ccccc12` showed a TGI greater than 100 µM.

In the case of `Cc1cc(C)c(/C=C(\C(=C/c2c(C)cc(C)cc2C)[N+](=O)[O-])[N+](=O)[O-])c(C)c1`, the TGI is greater than 100 µM.

In turn, `O=C1/C(=C/c2cccc([N+](=O)[O-])c2)Sc2scc(-c3ccc([N+](=O)[O-])cc3)[n+]21` had a TGI of 29.9 µM.

Another test has as its system DU-145 prostate. Briefly: NCI-60 cell line screen, 48 h.
Take `COc1cc([N+](=O)[O-])c(OC)c2c(Nc3ccc(S(=O)(=O)O)c4cc(S(=O)(=O)O)cc(S(=O)(=O)O)c34)cc(C)nc12`: the TGI was greater than 100 µM.

For the molecule `O=c1c2ccccc2sc2ccccc12`, the TGI was greater than 100 µM.

`Cc1cc(C)c(/C=C(\C(=C/c2c(C)cc(C)cc2C)[N+](=O)[O-])[N+](=O)[O-])c(C)c1` returned a TGI greater than 100 µM.

Molecule `O=C1/C(=C/c2cccc([N+](=O)[O-])c2)Sc2scc(-c3ccc([N+](=O)[O-])cc3)[n+]21` came in with a TGI greater than 100 µM.

Another test concerns SF-268 CNS. The test can be described thus: NCI-60 cell line screen, 48 h.
Molecule `COc1cc([N+](=O)[O-])c(OC)c2c(Nc3ccc(S(=O)(=O)O)c4cc(S(=O)(=O)O)cc(S(=O)(=O)O)c34)cc(C)nc12` had a TGI greater than 100 µM.

Take `O=c1c2ccccc2sc2ccccc12`: the TGI is greater than 100 µM.

Another test concerns MCF7 breast. The test can be described thus: NCI-60 cell line screen, 48 h.
`COc1cc([N+](=O)[O-])c(OC)c2c(Nc3ccc(S(=O)(=O)O)c4cc(S(=O)(=O)O)cc(S(=O)(=O)O)c34)cc(C)nc12` returned a TGI greater than 100 µM.

For the molecule `O=c1c2ccccc2sc2ccccc12`, the TGI was greater than 100 µM.

For the origin of these results see PubChem BioAssay (NCI).
